In paper PMC10254852, “Design, Synthesis and Anticancer Evaluation of Nitroimidazole Radiosensitisers” (Molecules, 2023):

tested on: HCT116/54C cells; experiment: In vitro cytotoxicity, 4 h exposure oxic/anoxic, 5-day regrowth, sulforhodamine B; format: cell-based, human; conditions: HCT116/54C, IC50(oxic)/IC50(anoxic)
Text: (§1) This allowed derivation of hypoxia cytotoxicity ratios (HCR) as IC50(oxic)/IC50(anoxic) in an HCT116 subclone HCT116/54C and two HNSCC cell lines, FaDu and UT-SCC-74B (Table 2).
(§2) HCT116/54C is an HCT116 subline that originated from a mixed culture with UT-SCC-54C cells, which was supplied alongside UT-SCC-74B by Prof. Bradly Wouters (University Health Network, Toronto, ON, Canada). HCT116/54C and UT-SCC-74B cells were passaged in minimum essential media (MEM, ThermoFisher Scientific, Waltham, MA, USA) with 10% foetal calf serum (FCS, Moregate Biotech, Hamilton, New Zealand), 4.5 mg/mL D-glucose (Sigma-Aldrich, St. Louis, MO, USA) and 20 mM HEPES (Sigma-Aldrich). FaDu cells were sourced from American Type Culture Collection and cultured in αMEM (ThermoFisher Scientific) with 10% FCS. All cell lines were confirmed mycoplasma-free by PlasmoTest (InvivoGen, San Diego, CA, USA) and were derived from STR-authenticated cryopreserved stocks. Log-phase cells were seeded into 96-well plates at 800 cells/well for HCT116/54C and 1500 cells/well for FaDu. […] After drug washout, cells were grown and stained as for the oxic IC50 assays. The hypoxic cytotoxicity ratio HCR was determined as HCR = IC50(oxic)/IC50(anoxic).

Structure (SMILES)	HCR
COCC(O)Cn1ccnc1[N+](=O)[O-] (centres unmarked) [Compound 1, misonidazole, reference compound]	>16.8
O=[N+]([O-])c1nccn1CCS(=O)(=O)NCCO [Compound 6]	>7.3
O=[N+]([O-])c1cncn1CCS(=O)(=O)NCCO [Compound 8]	>2.4
COCCNS(=O)(=O)Cn1ccnc1[N+](=O)[O-] [Compound 33]	>51
COCCNS(=O)(=O)CCn1ccnc1[N+](=O)[O-] [Compound 35]	>16
O=[N+]([O-])c1nccn1CCS(=O)(=O)NCCN1CCOCC1 [Compound 36]	12.9
COCCNS(=O)(=O)Cn1cncc1[N+](=O)[O-] [Compound 37]	2.9
COCCNS(=O)(=O)CCn1cncc1[N+](=O)[O-] [Compound 39]	>1.9
COCCNS(=O)(=O)CCn1c([N+](=O)[O-])cnc1C [Compound 40]	>1.8

same assay, conditions: Homo sapiens, HCT116/54C, 4 h, read-out: IC50 Anoxic

Structure (SMILES)	IC50
COCC(O)Cn1ccnc1[N+](=O)[O-] (centres unmarked) [Compound 1, misonidazole, reference compound]	1.5 ± 0.3 mM

same assay, conditions: Homo sapiens, HCT116/54C, 4 h, read-out: IC50 Oxic

Structure (SMILES)	IC50
COCC(O)Cn1ccnc1[N+](=O)[O-] (centres unmarked) [Compound 1, misonidazole, reference compound]	> 25 mM

same assay, conditions: Homo sapiens, HCT116/54C, read-out: hypoxic IC50

Structure (SMILES)	IC50
COCC(O)Cn1ccnc1[N+](=O)[O-] (centres unmarked) [Compound 1, misonidazole, reference compound]	0.5 mM

same assay, conditions: Homo sapiens; HCT116/54C, anoxic, 4 h exposure, mean ± SEM, n = 3–4; read-out: IC50 Anoxic

Structure (SMILES)	IC50
O=[N+]([O-])c1nccn1CCS(=O)(=O)NCCO [Compound 6]	2.2 ± 0.04 mM
O=[N+]([O-])c1cncn1CCS(=O)(=O)NCCO [Compound 8]	9 ± 0.9 mM
COCCNS(=O)(=O)Cn1ccnc1[N+](=O)[O-] [Compound 33]	0.12 ± 0.002 mM
COCCNS(=O)(=O)CCn1ccnc1[N+](=O)[O-] [Compound 35]	0.97 ± 0.16 mM
O=[N+]([O-])c1nccn1CCS(=O)(=O)NCCN1CCOCC1 [Compound 36]	0.71 ± 0.13 mM
COCCNS(=O)(=O)Cn1cncc1[N+](=O)[O-] [Compound 37]	4 ± 0.7 mM
COCCNS(=O)(=O)CCn1cncc1[N+](=O)[O-] [Compound 39]	13 ± 1.3 mM
COCCNS(=O)(=O)CCn1c([N+](=O)[O-])cnc1C [Compound 40]	11 ± 0.4 mM

same assay, conditions: Homo sapiens; HCT116/54C, oxic, 4 h exposure, mean ± SEM, n = 3–4; read-out: IC50 Oxic

Structure (SMILES)	IC50
O=[N+]([O-])c1nccn1CCS(=O)(=O)NCCO [Compound 6]	> 16 mM
O=[N+]([O-])c1cncn1CCS(=O)(=O)NCCO [Compound 8]	> 22 mM
COCCNS(=O)(=O)Cn1ccnc1[N+](=O)[O-] [Compound 33]	> 6.2 mM
COCCNS(=O)(=O)CCn1ccnc1[N+](=O)[O-] [Compound 35]	> 16 mM
O=[N+]([O-])c1nccn1CCS(=O)(=O)NCCN1CCOCC1 [Compound 36]	9.2 ± 1.1 mM
COCCNS(=O)(=O)Cn1cncc1[N+](=O)[O-] [Compound 37]	11.4 ± 1 mM
COCCNS(=O)(=O)CCn1cncc1[N+](=O)[O-] [Compound 39]	> 25 mM
COCCNS(=O)(=O)CCn1c([N+](=O)[O-])cnc1C [Compound 40]	> 20 mM

tested on: UT-SCC-74B cells; experiment: as above; format: cell-based, human; conditions: Homo sapiens, 4 h, read-out: IC50 Anoxic
Text: as §1, §2

Structure (SMILES)	IC50
COCC(O)Cn1ccnc1[N+](=O)[O-] (centres unmarked) [Compound 1, misonidazole, reference compound]	2.1 ± 0.6 mM

same assay, conditions: Homo sapiens, 4 h, read-out: IC50 Oxic

Structure (SMILES)	IC50
COCC(O)Cn1ccnc1[N+](=O)[O-] (centres unmarked) [Compound 1, misonidazole, reference compound]	> 25 mM

same assay, conditions: Homo sapiens, anoxic, 4 h exposure, mean ± SEM, n = 3–4, read-out: IC50 Anoxic

Structure (SMILES)	IC50
O=[N+]([O-])c1nccn1CCS(=O)(=O)NCCO [Compound 6]	3 ± 0.6 mM
O=[N+]([O-])c1cncn1CCS(=O)(=O)NCCO [Compound 8]	10.9 ± 1.3 mM
COCCNS(=O)(=O)Cn1ccnc1[N+](=O)[O-] [Compound 33]	0.19 ± 0.02 mM
O=[N+]([O-])c1nccn1CCS(=O)(=O)NCCN1CCOCC1 [Compound 36]	1.6 ± 0.3 mM

same assay, conditions: Homo sapiens, oxic, 4 h exposure, mean ± SEM, n = 3–4, read-out: IC50 Oxic

Structure (SMILES)	IC50
O=[N+]([O-])c1nccn1CCS(=O)(=O)NCCO [Compound 6]	> 20 mM
O=[N+]([O-])c1cncn1CCS(=O)(=O)NCCO [Compound 8]	> 22 mM
COCCNS(=O)(=O)Cn1ccnc1[N+](=O)[O-] [Compound 33]	3.7 ± 0.8 mM
O=[N+]([O-])c1nccn1CCS(=O)(=O)NCCN1CCOCC1 [Compound 36]	11.9 ± 1.5 mM

same assay, conditions: IC50(oxic)/IC50(anoxic)

Structure (SMILES)	HCR
COCC(O)Cn1ccnc1[N+](=O)[O-] (centres unmarked) [Compound 1, misonidazole, reference compound]	>11.9
O=[N+]([O-])c1nccn1CCS(=O)(=O)NCCO [Compound 6]	>6.6
O=[N+]([O-])c1cncn1CCS(=O)(=O)NCCO [Compound 8]	>2.0
COCCNS(=O)(=O)Cn1ccnc1[N+](=O)[O-] [Compound 33]	19.9
O=[N+]([O-])c1nccn1CCS(=O)(=O)NCCN1CCOCC1 [Compound 36]	7.6

tested on: FaDu cells; experiment: as above; format: cell-based; conditions: Homo sapiens, 4 h, read-out: IC50 Anoxic
Text: as §1, §2

Structure (SMILES)	IC50
COCC(O)Cn1ccnc1[N+](=O)[O-] (centres unmarked) [Compound 1, misonidazole, reference compound]	1.3 ± 0.2 mM

same assay, conditions: Homo sapiens, 4 h, read-out: IC50 Oxic

Structure (SMILES)	IC50
COCC(O)Cn1ccnc1[N+](=O)[O-] (centres unmarked) [Compound 1, misonidazole, reference compound]	> 20 mM

same assay, conditions: Homo sapiens, anoxic, 4 h exposure, mean ± SEM, n = 3–4, read-out: IC50 Anoxic

Structure (SMILES)	IC50
O=[N+]([O-])c1nccn1CCS(=O)(=O)NCCO [Compound 6]	1.2 ± 0.2 mM
O=[N+]([O-])c1cncn1CCS(=O)(=O)NCCO [Compound 8]	6.6 ± 0.6 mM
COCCNS(=O)(=O)Cn1ccnc1[N+](=O)[O-] [Compound 33]	0.09 ± 0.01 mM
COCCNS(=O)(=O)CCn1ccnc1[N+](=O)[O-] [Compound 35]	0.81 ± 0.12 mM
O=[N+]([O-])c1nccn1CCS(=O)(=O)NCCN1CCOCC1 [Compound 36]	0.69 ± 0.04 mM
COCCNS(=O)(=O)Cn1cncc1[N+](=O)[O-] [Compound 37]	2.1 ± 0.04 mM
COCCNS(=O)(=O)CCn1cncc1[N+](=O)[O-] [Compound 39]	7.2 ± 0.2 mM
COCCNS(=O)(=O)CCn1c([N+](=O)[O-])cnc1C [Compound 40]	8 ± 0.5 mM

same assay, conditions: Homo sapiens, oxic, 4 h exposure, mean ± SEM, n = 3–4, read-out: IC50 Oxic

Structure (SMILES)	IC50
O=[N+]([O-])c1nccn1CCS(=O)(=O)NCCO [Compound 6]	17.8 ± 2.2 mM
O=[N+]([O-])c1cncn1CCS(=O)(=O)NCCO [Compound 8]	> 24 mM
COCCNS(=O)(=O)Cn1ccnc1[N+](=O)[O-] [Compound 33]	4 ± 1.2 mM
COCCNS(=O)(=O)CCn1ccnc1[N+](=O)[O-] [Compound 35]	16.5 ± 1.6 mM
O=[N+]([O-])c1nccn1CCS(=O)(=O)NCCN1CCOCC1 [Compound 36]	7.3 ± 0.6 mM
COCCNS(=O)(=O)Cn1cncc1[N+](=O)[O-] [Compound 37]	12 ± 1.9 mM
COCCNS(=O)(=O)CCn1cncc1[N+](=O)[O-] [Compound 39]	> 19 mM
COCCNS(=O)(=O)CCn1c([N+](=O)[O-])cnc1C [Compound 40]	> 22 mM

same assay, conditions: IC50(oxic)/IC50(anoxic)

Structure (SMILES)	HCR
COCC(O)Cn1ccnc1[N+](=O)[O-] (centres unmarked) [Compound 1, misonidazole, reference compound]	>15.4
O=[N+]([O-])c1nccn1CCS(=O)(=O)NCCO [Compound 6]	14.9
O=[N+]([O-])c1cncn1CCS(=O)(=O)NCCO [Compound 8]	>3.6
COCCNS(=O)(=O)Cn1ccnc1[N+](=O)[O-] [Compound 33]	46.6
COCCNS(=O)(=O)CCn1ccnc1[N+](=O)[O-] [Compound 35]	20.4
O=[N+]([O-])c1nccn1CCS(=O)(=O)NCCN1CCOCC1 [Compound 36]	10.6
COCCNS(=O)(=O)Cn1cncc1[N+](=O)[O-] [Compound 37]	5.7
COCCNS(=O)(=O)CCn1cncc1[N+](=O)[O-] [Compound 39]	>2.6
COCCNS(=O)(=O)CCn1c([N+](=O)[O-])cnc1C [Compound 40]	>2.7

tested on: HCT116/54C cells; experiment: In vitro radiosensitisation under anoxia, clonogenic survival; format: cell-based, human; conditions: compound 1 mM, radiation dose for 1% survival/radiation dose for 1% survival with compound, mean ± SEM
Method: Next, we evaluated in vitro radiosensitisation by using a representative subset of nitroimidazole compounds in HCT116/54C cells with a clonogenic survival endpoint. Radiosensitisation was determined by treating cells under anoxia with a range of radiation doses alone and with compounds at equimolar doses (1 mM). Sensitiser enhancement ratios (SER) were calculated as the ratio of radiation dose required for 1% clonogenic survival alone or with compound (Table 3).
Cells were seeded onto 96-well plates at 10^5 cells per well and allowed to attach for 2 h. […] The plates were irradiated (Eldorado 78 ^60Co teletherapy unit, ~2 Gy/min) with 15 Gy under anoxia at room temperature for SR experiments. A metal wedge placed on the top of the metal chamber was used to achieve a graduated radiation dose across the plate, varying from 7 to 29 Gy, calibrated by Fricke dosimetry with ammonium thiocyanate as previously described for SER experiments. The control plate (compound alone, no radiation) was left inside the anaerobic chamber at room temperature during the irradiation period. After treatment, the cells were trypsinized and suspended in usual media + 1% penicillin-streptomycin (ThermoFisher Scientific), and 10-fold serial dilutions were plated for clonogenic survival. After 10 days, plates were stained with methylene blue (2 g/L in EtOH/H2O, 1:1 v/v) and colonies with more than 50 cells were counted. The surviving fraction (SF) was determined as: SF = PE(irradiated)/PE(control) where the plating efficiency (PE) = (No. of colonies)/(No. of cells plated). SF was plotted against radiation dose. Survival ratios (SR) were calculated: SR = (cell survival with radiation)/(cell survival with drug + radiation). Sensitizer enhancement ratios (SER) were calculated: SER = (radiation dose for 1% survival without compound)/(radiation dose for 1% survival with compound).

Structure (SMILES)	SER at 1 mM
COCC(O)Cn1ccnc1[N+](=O)[O-] (centres unmarked) [Compound 1, misonidazole, reference compound]	1.46 ± 0.01
O=[N+]([O-])c1nccn1CCS(=O)(=O)NCCO [Compound 6]	1.39 ± 0.01
O=[N+]([O-])c1cncn1CCS(=O)(=O)NCCO [Compound 8]	1.27 ± 0.00
O=[N+]([O-])c1nccn1CCS(=O)(=O)NCCN1CCOCC1 [Compound 36]	1.57 ± 0.00
